Experimental data reported in article PMC12639566, “Identification of antimalarial drugs and bradykinin as ligands of the Plasmodium membrane protein PfSR10” (iScience, 2025).
Peptide text beside a SMILES is read from it.

Legend:
[1] = molecular target: T1, PfSR10 (Plasmodium falciparum, UniProt Q8I5P8); experiment: FlAsH-BRET assay of PfSR10 extracellular conformational changes; format: cell-based; conditions: for ECL3 movement relative to the PfSR10 N-terminus, S6 sensor: S6 (site 6) sensor site; for ECL1 movement relative to the PfSR10 N-terminus: concentration-dependent
T1 sequence (Q8I5P8 entry or part of it): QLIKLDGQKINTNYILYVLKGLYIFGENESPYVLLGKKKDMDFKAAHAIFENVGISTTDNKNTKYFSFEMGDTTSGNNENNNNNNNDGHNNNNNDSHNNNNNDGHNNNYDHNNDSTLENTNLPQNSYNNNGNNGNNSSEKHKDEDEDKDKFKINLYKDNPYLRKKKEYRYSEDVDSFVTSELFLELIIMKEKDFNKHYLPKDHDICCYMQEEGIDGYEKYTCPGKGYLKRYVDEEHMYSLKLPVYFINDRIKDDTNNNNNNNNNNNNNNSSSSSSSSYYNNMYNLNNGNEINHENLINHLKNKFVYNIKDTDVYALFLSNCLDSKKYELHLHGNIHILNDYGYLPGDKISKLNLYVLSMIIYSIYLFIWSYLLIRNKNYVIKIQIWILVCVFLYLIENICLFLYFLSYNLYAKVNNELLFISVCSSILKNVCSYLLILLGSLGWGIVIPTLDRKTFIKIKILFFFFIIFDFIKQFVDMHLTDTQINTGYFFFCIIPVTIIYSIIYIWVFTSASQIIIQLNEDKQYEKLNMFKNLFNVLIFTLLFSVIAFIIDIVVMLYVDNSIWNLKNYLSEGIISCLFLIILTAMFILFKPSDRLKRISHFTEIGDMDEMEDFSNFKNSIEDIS
Experimental: To characterize the binding properties of different ligands (CQ, DHA, PIP-TT, PQ, bradykinin or des-Arg9-bradykinin) to PfSR10, a FlAsH BRET assay was performed as previously described.[29]^,[32]^,[49] We seeded HEK293 cells or COS-7 cells in 6-well plate were transfected with PfSR10 FlAsH BRET sensors (S1 to S6 as indicated in Figure 4B) and incubated for 48 h at 37°C in 5% CO2. The overexpressed PfSR10 sensors cells were washed with FlAsH BRET buffer (25 mM HEPES, 1 mM CaCl2, 140 mM NaCl, 2.7 mM KCl, 0.9 mM MgCl2, 0.37 mM NaH2PO4, 5.5 mM D-glucose, 12 mM NaHCO3) and incubated with 2.5 μM FlLAsH EDT2 (pre-diluted in FLAsH BRET buffer) for 40min at 37°C in 5% CO2. The cells were washed twice, resuspended with FlAsH BRET buffer, and seeded into a 96-well plate at a density of 5x10^4 per well. After adding increasing concentrations of ligand (CQ, DHA, PIP-TT, PQ, bradykinin or des-Arg9-bradykinin) together with luciferase substrate coelenterazine-h (5 μM), the BRET signals between Nluc (440-480 nm) and FlAsH fluorescent moiety (525-585 nm) emissions were examined by a Mithras LB 940 Multimode Microplate Reader.

[2] = molecular target: T1, PfSR10; experiment: GloSensor-cAMP assay, inhibition of forskolin-induced cAMP in PfSR10-overexpressing HEK293 cells; format: cell-based; conditions: for Fsk-induced cAMP level elevation (in words): PfSR10-overexpressing HEK293 cells, concentration-dependent
Experimental: (§1) To examine the constitutive activity of PfSR10, we transfected HEK293 cells with different concentrations of the receptor, including PfSR10, ADGRG2, ADGRG3. For measuring the anti-malarial drugs, bradykinin or des-Arg9-bradykinin-induced inhibition of forskolin-stimulated cAMP level in HEK293 cells or COS-7 cells, the receptor encoding plasmid (PfSR10 or its mutants) or empty plasmid (pcDNA3.1) was co-transfected with the GloSensor plasmid and incubated in an incubator at 37°C with 5% CO2 for 24 h. The transfected cells were then inoculated on 96-well plates (at a density of 4 × 10^4 / well) and incubated in incubators under the same conditions for another 24 hours. Cells were precultured with serum-free medium (Gibco) containing 5% DILUTED GloSensor™cAMP reagent Reserve solution (Progema) for 2 h. The base cAMP signal was directly measured using a multimode tablet reader (PerkinElmer Envision). At the same time, the cAMP signal induced by DHA, PIP-TT, PQ, CQ bradykinin or des-Arg9-bradykinin was detected after adding agonists into the corresponding Wells. Finally, the s-shaped dose response function in GraphPad Prism 7.0 was used to analyze the data.

[3] = molecular target: T1, PfSR10; experiment: Gi1-Gγ dissociation BRET assay in PfSR10-overexpressing HEK293 cells; format: cell-based; conditions: for Gi1 coupling with PfSR10 (in words): G protein dissociation assay
Text: (§2) To characterize the G protein signalling properties of PfSR10, G protein BRET probes were generated according to previous publication.[50] The Gqo BRET probes were generated by replacing the six amino acids of the C- terminus of Gq -RlucII with those from GoA1, creating a chimeric Gqo-RlucII subunit.[51] HEK293 cells or COS-7 cells were co-transfected with PfSR10 and various G protein probes (Gi, Gq and Gqo). Forty-eight hours post-transfection, cells were washed twice with HBSS, resuspended with HBSS buffer, and seeded into a 96-well plate at a density of 5x10^4 per well. After adding increasing concentrations of ligand (CQ, DHA, PIP-TT, PQ, Bradykinin, des-Arg9-bradykinin, bradykinin-Arg-FITC, FITC-bradykinin) together with luciferase substrate coelenterazine 400a (5 μM, Cayman), the BRET signals between […] (440-480 nm) and GFP2 (510 nm) emissions were examined by a Mithras LB 940 Multimode Microplate Reader (Berthold Technologies). The BRET signal was calculated as the ratio of the GFP2 emission to Nluc emission.

[4] = molecular target: T1, PfSR10; experiment: Gq-Gγ dissociation BRET assay in PfSR10-overexpressing HEK293 cells; format: cell-based
Text: as §2

[5] = test system: Plasmodium falciparum; experiment: IP3 ELISA in isolated parasites at trophozoite stage; format: cell-based; conditions: 10 μM DHA, 1 h, compared with untreated group
Experimental: To measure the IP3 levels in the Plasmodium falciparum. P. falciparum parasites were collected as described above. In brief, after 1 h-treatment 1h with 10 μM of DHA, P. falciparum parasites were isolated at the trophozoite stage and washed twice with PBS. Then P. falciparum parasites were disrupted repeatedly by freeze-thaw, sedimented by centrifugation at 600 g for 10 min at 4°C. The supernatant was collected and IP3 levels were determined using IP3 ELISA Kit (Hengyuan Biotechnology, Shanghai) according to manufacturer’s instructions.

[6] = test system: Plasmodium falciparum; experiment: cAMP ELISA in isolated parasites at trophozoite stage stimulated with Fsk; format: cell-based; conditions: 10 μM DHA, 3 μM Fsk, compared with untreated group
Experimental: For determination of the cAMP levels in the Plasmodium falciparum, P. falciparum-infected human erythrocyte s at trophozoite stage, synchronized with sorbitol as previously described.[47] The P. falciparum-infected cells were subject to the 10 μM DHA treatment or not for 1 h after synchronization in the presence of 3 μM of Fsk. P. falciparum parasites were isolated at the trophozoite stage.[48] P. falciparum parasites were washed twice with PBS and resuspended at a concentration of 5×10^6 cells/ml^-1 in the same buffer and incubated for 15 min with 10 μM DHA in the presence 300 nM IBMX to prevent cAMP degradation. After treatment, P. falciparum parasites were disrupted repeatedly by freeze-thaw, sedimented by centrifugation at 600 g for 10 min at 4°C and the supernatant was collected and subjected to cAMP measurement using cAMP ELISA Kit (R&D systems) according to manufacturer’s instructions.

[7] = molecular target: T2, PbSR10 (Plasmodium berghei, UniProt A0A509AUP3); experiment: GloSensor-cAMP assay in HEK293 cells overexpressing PbSR10; format: cell-based
T2 sequence (A0A509AUP3 entry or part of it): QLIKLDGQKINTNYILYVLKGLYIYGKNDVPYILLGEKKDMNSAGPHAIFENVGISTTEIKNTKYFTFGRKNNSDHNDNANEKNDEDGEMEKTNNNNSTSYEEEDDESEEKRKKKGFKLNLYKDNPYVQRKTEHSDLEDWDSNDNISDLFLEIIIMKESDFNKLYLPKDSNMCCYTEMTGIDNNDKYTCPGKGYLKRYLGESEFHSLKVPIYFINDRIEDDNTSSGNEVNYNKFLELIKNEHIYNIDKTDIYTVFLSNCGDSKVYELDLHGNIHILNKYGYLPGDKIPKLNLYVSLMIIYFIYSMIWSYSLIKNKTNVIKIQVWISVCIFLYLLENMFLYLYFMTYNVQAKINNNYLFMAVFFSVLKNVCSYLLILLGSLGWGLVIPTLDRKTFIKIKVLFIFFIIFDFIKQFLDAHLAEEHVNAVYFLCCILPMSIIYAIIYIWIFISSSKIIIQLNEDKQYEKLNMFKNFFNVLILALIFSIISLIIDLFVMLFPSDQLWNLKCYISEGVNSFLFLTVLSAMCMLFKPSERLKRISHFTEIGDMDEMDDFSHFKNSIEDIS

[8] = molecular target: T3, PcSR10 (Plasmodium chabaudi, UniProt A0A4V0KCI5); experiment: GloSensor-cAMP assay in HEK293 cells overexpressing PcSR10; format: cell-based
T3 sequence (A0A4V0KCI5 entry or part of it): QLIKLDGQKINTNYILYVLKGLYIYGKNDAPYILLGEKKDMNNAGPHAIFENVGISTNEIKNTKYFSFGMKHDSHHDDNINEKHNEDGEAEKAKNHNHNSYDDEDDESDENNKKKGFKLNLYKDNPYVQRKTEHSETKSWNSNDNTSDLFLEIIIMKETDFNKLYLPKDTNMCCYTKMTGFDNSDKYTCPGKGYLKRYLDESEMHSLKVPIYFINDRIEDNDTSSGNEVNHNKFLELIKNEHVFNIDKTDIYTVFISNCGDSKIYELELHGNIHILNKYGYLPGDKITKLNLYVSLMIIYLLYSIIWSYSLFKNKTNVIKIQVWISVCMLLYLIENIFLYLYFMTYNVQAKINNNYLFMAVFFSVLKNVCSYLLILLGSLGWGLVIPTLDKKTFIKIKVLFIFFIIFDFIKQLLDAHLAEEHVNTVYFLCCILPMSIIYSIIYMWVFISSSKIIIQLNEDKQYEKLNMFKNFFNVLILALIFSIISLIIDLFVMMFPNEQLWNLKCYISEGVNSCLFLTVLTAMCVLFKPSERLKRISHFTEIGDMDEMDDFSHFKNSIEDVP

[9] = molecular target: T4, PySR10 (Plasmodium yoelii, UniProt V7PQD6); experiment: GloSensor-cAMP assay in HEK293 cells overexpressing PySR10; format: cell-based
T4 sequence (V7PQD6 entry or part of it): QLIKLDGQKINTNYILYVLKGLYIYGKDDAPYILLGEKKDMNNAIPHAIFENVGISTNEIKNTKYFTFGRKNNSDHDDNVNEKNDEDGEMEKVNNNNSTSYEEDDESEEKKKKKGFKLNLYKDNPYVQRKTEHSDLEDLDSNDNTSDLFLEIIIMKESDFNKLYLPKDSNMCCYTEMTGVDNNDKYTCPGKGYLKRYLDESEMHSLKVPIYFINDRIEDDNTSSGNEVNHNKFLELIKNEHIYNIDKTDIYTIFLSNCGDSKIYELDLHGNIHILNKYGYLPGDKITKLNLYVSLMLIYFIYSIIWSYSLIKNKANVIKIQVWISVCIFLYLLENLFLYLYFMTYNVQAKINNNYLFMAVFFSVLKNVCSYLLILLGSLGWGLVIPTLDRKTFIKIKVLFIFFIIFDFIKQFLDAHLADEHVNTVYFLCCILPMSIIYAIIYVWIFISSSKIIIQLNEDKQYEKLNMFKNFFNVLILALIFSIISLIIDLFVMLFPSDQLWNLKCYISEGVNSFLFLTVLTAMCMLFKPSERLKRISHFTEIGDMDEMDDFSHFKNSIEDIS

[10] = test system: SR10; experiment: GloSensor-cAMP assay in HEK293 cells overexpressing P. vivax SR10; format: cell-based; conditions: one of the two other Plasmodium species
[11] = test system: SR10; experiment: GloSensor-cAMP assay in HEK293 cells overexpressing P. knowlesi SR10; format: cell-based; conditions: one of the two other Plasmodium species
[12] = test system: PfSR10 mutants; experiment: GloSensor-cAMP assay with site-directed PfSR10 mutants; format: cell-based, Plasmodium falciparum
Experimental: as §1

[13] = molecular target: T2, PbSR10; experiment: Gi protein trimer dissociation assay in HEK293 cells overexpressing PbSR10; format: cell-based
[14] = molecular target: T3, PcSR10; experiment: Gi dissociation assay in HEK293 cells overexpressing PcSR10; format: cell-based; conditions: read-out: Gi activity EC50 downstream of PcSR10
[15] = molecular target: T4, PySR10; experiment: Gi dissociation assay in HEK293 cells overexpressing PySR10; format: cell-based; conditions: read-out: Gi activity EC50 downstream of PySR10
[16] = molecular target: T1, PfSR10; experiment: cAMP inhibition in PfSR10-overexpressing COS-7 cells; format: cell-based; conditions: read-out: EC50 in COS-7 cell
Experimental: as §1

[17] = molecular target: PcSR10 (SR10 of Plasmodium chabaudi) (Plasmodium chabaudi)
[18] = molecular target: PySR10 (SR10 of Plasmodium yoelii) (Plasmodium yoelii)
[19] = HEK293 cells overexpressing PfSR10, mean ± SEM

Molecule: O=C1C(O)=C([C@H]2CC[C@H](c3ccc(Cl)cc3)CC2)C(=O)c2ccccc21 [ATO, atovaquone]
- extracellular conformational changes in PfSR10 [1]: did not induce detectable extracellular conformational changes

Molecule: CCN(CC)CCCC(C)Nc1ccnc2cc(Cl)ccc12 (centres unmarked) [CQ, chloroquine]
- EC50 [2]: 36.6 ± 2.97 nM
- cAMP inhibition Emax [2, 19]: 0.958 ± 0.03 × 10^3
- EC50 [3]: 0.75 ± 0.06 nM
- Gi1 coupling with PfSR10 (in words) [3]: promoted Gi1 coupling with PfSR10
- ECL3 movement relative to the PfSR10 N-terminus, S6 sensor [1]: separation of ECL3 from the PfSR10 N-terminus
- ECL1 movement relative to the PfSR10 N-terminus [1]: inward movement of ECL1 toward the PfSR10 N-terminus

Molecule: C[C@H]1[C@@H](O)O[C@@H]2O[C@@]3(C)CC[C@H]4[C@H](C)CC[C@@H]1[C@@]24OO3 [DHA, dihydroartemisinin]
- EC50 [2]: 3.94 ± 1.6 nM
- cAMP inhibition Emax [2, 19]: 1.136 ± 0.06 × 10^3
- EC50 [4]: 2 ± 0.1 nM
- IP3 concentration in the malaria parasite [5]: significantly increased
- Fsk-stimulated cAMP in the malaria parasite [6]: inhibited
- ECL1 movement relative to the PfSR10 N-terminus [1]: inward movement of ECL1 toward the PfSR10 N-terminus
- EC50 [7]: 12.3 ± 4.75 nM
- EC50 [8]: 37.6 ± 15.5 nM
- EC50 [9]: 36.6 ± 6.78 nM
- cAMP response via SR10 of P. vivax [10]: no response
- cAMP response via SR10 of P. knowlesi [11]: no response
- effect of mutation on DHA potency, PfSR10 C454F ([12]; mutant C454F vs wild type): minimal effects
- effect of mutation on DHA-induced cAMP inhibition, PfSR10 L587M ([12]; mutant L587M vs wild type): significantly impaired
- effect of mutation on DHA-induced cAMP inhibition, PfSR10 N595S ([12]; mutant N595S vs wild type): significantly impaired
- effect of mutation on DHA-induced cAMP inhibition, PfSR10 T513A ([12]; mutant T513A vs wild type): significantly impaired
- effect of mutation on DHA potency, PfSR10 T528S ([12]; mutant T528S vs wild type): minimal effects
- Gi dissociation downstream of PbSR10 [13]: promoted Gi dissociation

Molecule: Clc1ccc2c(N3CCN(CCCN4CCN(c5ccnc6cc(Cl)ccc56)CC4)CC3)ccnc2c1.O=P(O)(O)O [PIP-TT, piperaquine-tetraphosphate-tetrahydrate]
- cAMP inhibition Emax [2, 19]: 1.070 ± 0.09 × 10^3
- EC50 ([2]; inhibition of Fsk-induced cAMP elevation, HEK293 cells overexpressing PfSR10, mean ± SEM, n=3, read-out: cAMP inhibition EC50): 0.4 ± 0.12 nM
- Gi1 coupling with PfSR10 (in words) [3]: promoted Gi1 coupling with PfSR10
- Gi1-dissociation Emax [3, 19]: -13.00 ± 1.00 × 10^-3
- EC50 ([3]; HEK293 cells overexpressing PfSR10, mean ± SEM, read-out: Gi1-dissociation EC50): 9.18 ± 5.23 nM
- ECL3 movement relative to the PfSR10 N-terminus, S6 sensor [1]: separation of ECL3 from the PfSR10 N-terminus
- ECL1 movement relative to the PfSR10 N-terminus [1]: inward movement of ECL1 toward the PfSR10 N-terminus

Molecule: COc1cc(NC(C)CCCN)c2ncccc2c1 (centres unmarked) [PQ, primaquine diphosphate]
- EC50 [2]: 17.4 ± 4.77 nM
- cAMP inhibition Emax [2, 19]: 1.153 ± 0.06 × 10^3
- ECL1 movement relative to the PfSR10 N-terminus [1]: inward movement of ECL1 toward the PfSR10 N-terminus
- Gi dissociation downstream of PbSR10 [13]: promoted Gi dissociation

Molecule: N=C(N)NCCC[C@H](NC(=O)[C@H](Cc1ccccc1)NC(=O)[C@@H]1CCCN1C(=O)[C@H](CO)NC(=O)[C@H](Cc1ccccc1)NC(=O)CNC(=O)[C@@H]1CCCN1C(=O)[C@@H]1CCCN1C(=O)[C@@H](N)CCCNC(=N)N)C(=O)O [bradykinin] (H-RPPGFSPFR-OH)
- Fsk-induced cAMP level elevation (in words) [2]: significantly inhibited
- Gi1 coupling with PfSR10 (in words) [3]: promoted Gi1 coupling to PfSR10
- Gq dissociation signal (in words) ([4]; PfSR10-overexpressing cells): remarkable reduction
- ECL movements of PfSR10 by FlAsH-BRET sensors (kinin peptides) [1]: movement of ECL1 and ECL3 toward the N-terminus and separation of the ECL2 region and N-terminus of PfSR10

Molecule: NC(N)=NCCC[C@H](NC(=O)[C@H](Cc1ccccc1)NC(=O)[C@@H]1CCCN1C(=O)[C@H](CO)NC(=O)[C@H](Cc1ccccc1)NC(=O)CNC(=O)[C@@H]1CCCN1C(=O)[C@@H]1CCCN1C(=O)[C@@H](N)CCCN=C(N)N)C(=O)O [bradykinin] (H-RPPGFSPFR-OH)
- EC50 [2]: 1.82 ± 0.83 nM
- EC50 [3]: 0.38 ± 0.11 nM
- EC50 [4]: 0.53 ± 0.06 nM
- EC50 [14]: 0.15 ± 0.005 nM
- EC50 [15]: 0.67 ± 0.29 nM

Molecule: N=C(N)NCCC[C@H](N)C(=O)N1CCC[C@H]1C(=O)N1CCC[C@H]1C(=O)NCC(=O)N[C@@H](Cc1ccccc1)C(=O)N[C@@H](CO)C(=O)N1CCC[C@H]1C(=O)N[C@@H](Cc1ccccc1)C(=O)O [des-Arg9-bradykinin]
- Fsk-induced cAMP level elevation (in words) [2]: significantly inhibited
- Gi1 coupling with PfSR10 (in words) [3]: promoted Gi1 coupling to PfSR10
- ECL movements of PfSR10 by FlAsH-BRET sensors (kinin peptides) [1]: movement of ECL1 and ECL3 toward the N-terminus and separation of the ECL2 region and N-terminus of PfSR10
- EC50 [16]: 0.29 ± 0.08 nM

Molecule: RPPGFSPFR [bradykinin]
- EC50 of Gi activity downstream of PcSR10, concentration-dependent [17]: 0.15 nM
- EC50 of Gi activity downstream of PySR10, concentration-dependent [18]: 0.67 nM
